Our source for the MIC values is DBAASP.

≈ marks a conversion by molar mass, not a printed value.

Test systems include Bacillus subtilis 168; Escherichia coli B; Pseudomonas aeruginosa; Staphylococcus aureus; Escherichia coli UB1005; Escherichia coli BW25113.
What all share (test): ≥ marks a high value that may be exact or a test limit, other limits are often not marked, values filed in µg/mL are converted to µM
Test [1] has as its system Bacillus subtilis ATCC 6633.
For test [2], the system named is Escherichia coli ATCC 8739.
Test [3] has as its system Staphylococcus aureus ATCC 43300.
The subject of test [4] is Staphylococcus aureus ATCC 6538.
Test [5] deals with Candida albicans F7-39/IDE99.
Test [6] deals with Micrococcus luteus CCM 144.
Test [7] has as its system Pseudomonas aeruginosa ATCC 27853.
The test system of test [8] is Staphylococcus epidermidis.
Test [9] has as its system Candida albicans ATCC 90028.
For test [10], the system named is Enterococcus faecalis ATCC 29212.
Test [11] relates to Salmonella enterica subsp. enterica serovar Pullorum C79-13.
Test [12] relates to Salmonella enterica subsp. enterica serovar Typhimurium ATCC 14028.
In test [13] the test system is Salmonella enterica subsp. enterica serovar Typhimurium C77-31.
Test [14] has as its system Staphylococcus epidermidis ATCC 12228.
Test [15] deals with Escherichia coli ATCC 25922.
Test [16] deals with Staphylococcus aureus ATCC 29213.

As usually defined, the MIC is the lowest concentration that inhibits growth of the organism. A low value points to a more susceptible organism. Turning to `CC[C@H](C)[C@H](NC(=O)CN)C(=O)N[C@@H](Cc1ccccc1)C(=O)N[C@@H](CO)C(=O)N[C@@H](CCCCN)C(=O)N[C@@H](Cc1ccccc1)C(=O)N[C@@H](C)C(=O)NCC(=O)N[C@@H](CCCCN)C(=O)NCC(=O)N[C@H](C(=O)N[C@@H](CCCCN)C(=O)N[C@@H](CC(N)=O)C(=O)N[C@@H](CC(C)C)C(=O)N[C@@H](CC(C)C)C(=O)N[C@H](C(=O)N[C@@H](CCCCN)C(=O)NCC(=O)N[C@H](C(=O)N[C@@H](CCCCN)C(=O)N[C@@H](CC(N)=O)C(=O)N[C@H](C(=O)NCC(=O)N[C@@H](CCCCN)C(=O)N[C@@H](CCC(=O)O)C(=O)N[C@H](C(=O)NCC(=O)N[C@@H](CCSC)C(=O)N[C@@H](CC(=O)O)C(=O)N[C@H](C(=O)N[C@H](C(=O)N[C@@H](CCCN=C(N)N)C(=O)N[C@H](C(=O)NCC(=O)N[C@H](C(=O)N[C@@H](CC(=O)O)C(=O)N[C@H](C(=O)N[C@@H](C)C(=O)NCC(=O)N[C@H]1CSSC[C@@H](C(=O)O)NC(=O)[C@H](CCC(=O)O)NC(=O)CNC(=O)[C@H](CCCCN)NC(=O)[C@H]([C@@H](C)CC)NC(=O)[C@H](CCCCN)NC1=O)[C@@H](C)CC)[C@@H](C)CC)[C@@H](C)O)[C@@H](C)CC)C(C)C)C(C)C)[C@@H](C)CC)C(C)C)C(C)C)[C@@H](C)CC` [GIFSKFAGKGIKNLLVKGVKNIGKEVGMDVIRTGIDIAGCKIKGEC], the minimum inhibitory concentration (MIC) worked out at 25 µM (≈ 120 µg/mL) in test [1], 6.3 µM (≈ 30.3 µg/mL) in test [2], 25 µM (≈ 120 µg/mL) in test [3] and 3.1 µM (≈ 14.9 µg/mL) in test [4].
With `CC[C@H](C)[C@H](NC(=O)CN)C(=O)N[C@@H](CC(C)C)C(=O)N[C@@H](CO)C(=O)N[C@@H](CO)C(=O)N[C@@H](CC(C)C)C(=O)N[C@@H](Cc1c[nH]c2ccccc12)C(=O)N[C@@H](CCCCN)C(=O)N[C@@H](CCCCN)C(=O)N1CCC[C@H]1C(=O)N[C@@H](CCCCN)C(=O)N[C@@H](CCCCN)C(=O)N[C@H](C(=O)N[C@H](C(=O)N[C@@H](C)C(=O)N[C@@H](CCCCN)C(N)=O)[C@@H](C)CC)[C@@H](C)CC` [GILSSLWKKPKKIIAK], the MIC against Bacillus subtilis 168 is at least 49 µM; in [5] it was at least 100 µM; in the test on Escherichia coli B, at least 100 µM; in test [6], 5.8 µM (≈ 10.5 µg/mL); in test [7] it was 98 µM (≈ 177 µg/mL); with Pseudomonas aeruginosa it was over 100 µM. Also, the MIC in test [3] was over 100 µM; in the test on Staphylococcus aureus, over 100 µM; in [8] it was at least 100 µM.
Consider `CC[C@H](C)[C@H](NC(=O)CN)C(=O)N[C@@H](CC(C)C)C(=O)N[C@@H](CO)C(=O)N[C@H](C(=O)N[C@H](C(=O)N[C@@H](Cc1ccccc1)C(=O)N[C@@H](CCCCN)C(=O)N[C@@H](C)C(=O)NCC(=O)N[C@@H](CCCCN)C(=O)NCC(=O)N[C@H](C(=O)N[C@H](C(=O)N[C@H]1CSSC[C@@H](C(=O)O)NC(=O)[C@H](CC(C)C)NC(=O)CNC(=O)[C@H](CO)NC(=O)[C@H](CC(C)C)NC(=O)CNC1=O)C(C)C)[C@@H](C)CC)C(C)C)[C@@H](C)O` [GILSTVFKAGKGIVCGLSGLC], for which the MIC in test [1] is 12.5 µM (≈ 25.3 µg/mL); in test [9], at least 100 µM; in test [2] it was at least 50 µM; in test [3], 25 µM (≈ 50.5 µg/mL); in test [4], 3.1 µM (≈ 6.27 µg/mL).
For `CC[C@H](C)[C@H](NC(=O)CN)C(=O)N[C@@H](CCSC)C(=O)N[C@@H](CO)C(=O)N[C@@H](CO)C(=O)N[C@@H](CC(C)C)C(=O)N[C@@H](CCSC)C(=O)N[C@@H](CCCCN)C(=O)N[C@@H](CCCCN)C(=O)N[C@@H](CC(C)C)C(=O)N[C@@H](C)C(=O)N[C@@H](C)C(=O)N[C@H](C(=O)N[C@H](C(=O)N[C@@H](C)C(=O)N[C@@H](CCCCN)C(N)=O)[C@@H](C)CC)[C@@H](C)CC` [GIMSSLMKKLAAIIAK], the MIC against Bacillus subtilis 168 turned out to be 7 µM (≈ 11.7 µg/mL); in test [5], 8.4 µM (≈ 14.1 µg/mL); in the test with Escherichia coli B it was 3.6 µM (≈ 6.03 µg/mL); in [6], 3 µM (≈ 5.02 µg/mL); in test [7], 8 µM (≈ 13.4 µg/mL); against Pseudomonas aeruginosa, 17 µM (≈ 28.5 µg/mL). Further, the results for the MIC (in test [3]; in the test with Staphylococcus aureus; in test [8]) were 7.2 µM (≈ 12.1 µg/mL), 10 µM (≈ 16.7 µg/mL) and 5 µM (≈ 8.37 µg/mL), respectively.
For `CC[C@H](C)[C@H](NC(=O)[C@H](CC(C)C)NC(=O)[C@H](CCCCN)NC(=O)[C@@H](NC(=O)[C@@H](NC(=O)[C@H](CCCCN)NC(=O)[C@@H]1CCCN1C(=O)[C@H](CC(C)C)NC(=O)[C@@H](NC(=O)[C@H](CCCCN)NC(=O)[C@H](C)NC(=O)[C@H](CC(C)C)NC(=O)[C@H](CC(C)C)NC(=O)[C@H](CO)NC(=O)[C@H](C)NC(=O)[C@H](CCSC)NC(=O)CN)C(C)C)C(C)C)C(C)C)C(=O)N[C@@H](CCCCN)C(=O)O` [GMASLLAKVLPKVVKLIK], the MIC with Bacillus subtilis 168 came to 3.4 µM (≈ 6.49 µg/mL); in test [5], 12.1 µM (≈ 23.1 µg/mL); with Escherichia coli B it was 1.8 µM (≈ 3.44 µg/mL); in [6] it was 1.2 µM (≈ 2.29 µg/mL); against Pseudomonas aeruginosa, 47.5 µM (≈ 90.7 µg/mL); with Staphylococcus aureus, 3.5 µM (≈ 6.68 µg/mL).
On to `CC[C@H](C)[C@H](NC(=O)[C@H](CCCCN)NC(=O)[C@H](CCCCN)NC(=O)[C@H](Cc1ccccc1)NC(=O)[C@H](CC(C)C)NC(=O)[C@H](CCCCN)NC(=O)[C@H](Cc1c[nH]c2ccccc12)NC(=O)[C@@H](N)CCCCN)C(=O)N[C@@H](CCCN=C(N)N)C(=O)N[C@@H](Cc1ccccc1)C(=O)NCC(=O)N[C@@H](CCCN=C(N)N)C(=O)N[C@@H](Cc1ccccc1)C(=O)N[C@@H](CC(C)C)C(=O)N[C@@H](CCCN=C(N)N)C(=O)N[C@@H](CCCCN)C(=O)N[C@H](C(=O)N[C@@H](CCCN=C(N)N)C(=O)N[C@@H](CCCN=C(N)N)C(=O)N[C@@H](Cc1ccccc1)C(=O)N[C@@H](CCCN=C(N)N)C(=O)N1CCC[C@H]1C(=O)N[C@@H](CCCCN)C(N)=O)[C@@H](C)CC` [KWKLFKKIRFGRFLRKIRRFRPK], for which the MIC was 4 µM (≈ 12.4 µg/mL) in [10]; 2 µM (≈ 6.21 µg/mL) against Escherichia coli UB1005; 4 µM (≈ 12.4 µg/mL) in test [7]; 8 µM (≈ 24.8 µg/mL) in test [11]; 4 µM (≈ 12.4 µg/mL) in [12]; 4 µM (≈ 12.4 µg/mL) in test [13]. Moreover, in test [14], the MIC was 4 µM (≈ 12.4 µg/mL).
As for `CC[C@H](C)[C@H](NC(=O)[C@H](C)NC(=O)CNC(=O)[C@H](CCCCN)NC(=O)[C@H](CC(N)=O)NC(=O)[C@@H](N)CC(C)C)C(=O)N[C@@H](CC(C)C)C(=O)N[C@@H](CCCCN)C(=O)N[C@@H](Cc1cnc[nH]1)C(=O)N[C@H](C(=O)N[C@H](C(=O)N[C@@H](CCCCN)C(N)=O)[C@@H](C)CC)[C@@H](C)CC` [LNKGAILKHIIK], the MIC is at least 65 µM with Bacillus subtilis 168; at least 100 µM in [5]; at least 100 µM against Escherichia coli B; at least 100 µM in [6]; over 100 µM with Pseudomonas aeruginosa; over 100 µM against Staphylococcus aureus.
`CC(C)C[C@H](NC(=O)[C@@H](NC(=O)[C@@H](NC(=O)[C@@H](N)CC(C)C)C(C)C)[C@@H](C)O)C(=O)N[C@H](C(=O)N[C@@H](Cc1ccccc1)C(=O)N[C@H](C(=O)NCC(=O)NCC(=O)NCC(=O)N[C@@H](Cc1c[nH]c2ccccc12)C(=O)N[C@@H](CCCCN)C(=O)N[C@@H](Cc1c[nH]c2ccccc12)C(=O)N[C@@H](CCCCN)C(=O)N[C@@H](Cc1c[nH]c2ccccc12)C(=O)N[C@@H](CCC(=O)O)C(=O)N[C@@H](CC(N)=O)C(=O)NCC(=O)N[C@@H](CCCCN)C(=O)N[C@@H](Cc1c[nH]c2ccccc12)C(=O)N[C@@H](CCCCN)C(=O)N[C@@H](Cc1c[nH]c2ccccc12)C(=O)N[C@@H](CCC(N)=O)C(=O)N[C@@H](Cc1c[nH]c2ccccc12)C(=O)O)C(C)C)C(C)C` [LVTLVFVGGGWKWKWENGKWKWQW]: the MIC in [10] is over 128 µM; in test [15] it was over 128 µM; in [11] it was at least 128 µM; in test [13], at least 128 µM; in test [16], over 128 µM; in test [14] it was over 128 µM.
The compound `CC[C@H](C)[C@H](NC(=O)[C@@H]1CCCN1C(=O)[C@@H]1CCCN1C(=O)[C@H](CCCN=C(N)N)NC(=O)[C@H](CCCN=C(N)N)NC(=O)[C@H](Cc1c[nH]c2ccccc12)NC(=O)[C@@H]1CCCN1C(=O)[C@@H]1CCCN1C(=O)[C@H](CCCN=C(N)N)NC(=O)[C@H](Cc1ccccc1)NC(=O)[C@@H](N)CCCN=C(N)N)C(=O)N[C@@H](CCCN=C(N)N)C(=O)N1CCC[C@H]1C(=O)N1CCC[C@H]1C(=O)N[C@@H](Cc1ccccc1)C(=O)N[C@@H](Cc1ccc(O)cc1)C(=O)N1CCC[C@H]1C(=O)O` [RFRPPWRRPPIRPPFYP] returned an MIC against Escherichia coli BW25113 of 8 µM (≈ 17.9 µg/mL). That is a single-digit micromolar value.
